Data reported in patent US12139508B2, “Steroid derivative regulators, method for preparing the same, and uses thereof” (JIANGSU HANSOH PHARMACEUTICAL GROUP CO., LTD., priority 2018, dated 2024).

The molecules below were run against GABA-A receptor (assay: 35S-TBPS binding assay (GABAA receptor binding ability test)). Details: rat cerebral cortex cell membrane, 5 μM GABA, 2 nM 35S-TBPS; read-out: 35S-TBPS bindng test: IC50 on inhibiting the TBPS binding activity.
Parameters: species or system Sprague-Dawley rat
Protocol: 1.2 Experimental Procedures 1.2.1 Extraction of Cerebral Cortex Cell Membrane:
1. The cerebral cortex of male Sprague-Dawley rat was isolated.
2. A pre-chilled 0.32 M sucrose solution (one tablet of protease inhibitor was added per 100 ml) was added to the cerebral cortex (the volume of sucrose solution was 10 times the volume of the cerebral cortex). The mixture was crushed with a 50 mL glass tissue homogenizer in batches and mixed well.
3. The mixture was centrifuged at 1500 g, 4° C. for 10 minutes, and the supernatant was collected.
4. The mixture was centrifuged at 20000 g, 4° C. for 30 minutes, and the supernatant was discarded.
5. The precipitate was resuspended with the pre-chilled phosphate buffer saline (PBS) (one tablet of protease inhibitor was added per 100 ml). An average of 4 ml of PBS was added per rat, and the mixture was mixed well by a glass tissue homogenizer.
6. The mixture was centrifuged at 10000 g, 4° C. for 10 minutes, and the supernatant was discarded.
7. Steps 5 and 6 were repeated three times.
8. Finally, the precipitate was resuspended with 4 volumes of PBS. The resulting solution was dispensed, frozen in liquid nitrogen, and stored at −80° C.
9. The protein concentration was measured by the bicinchoninic acid (BCA) method.
1.2.2 ^35S-TBPS Binding Assay
1. 230 μL of PBS was added to each well of a well plate with 1.1 ml volume.
2. 60 μL of the cerebral cortex cell membrane (5 μg/μL) solution was added to each well, and the mixture was mixed well.
3. The test compound (3 μL per well) was added, and the plate was incubated at 25° C. for 5 minutes. The DMSO concentration was 1%. The initial compound concentration was 1 μM, and a 3-fold dilution in gradient was carried out to obtain a total of 8 gradients and 2 replicates. 1% DMSO was used as a negative control, and 10 μM P026-2 was used as a positive control.
4. GABA was added at a final concentration of 5 μM, and incubated at 25° C. for 5 minutes. 1 mM GABA solution was formulated, and 1.5 μL of the solution was added to each well.
5. ^35S-TBPS was added at a final concentration of 2 nM. The concentration of isotope mother solution was 9.7 μM. After dilution with PBS for 100 times, 6 μL of the diluted isotope solution was added to each well.
6. The plate was incubated at 4° C. for 20 hours.
7. The FilterMate GF/C plate was pre-treated with 0.5% PEI, and incubated at 4° C. for 1 hour.
8. The FilterMate GF/C plate was washed with Universal Harvester twice, 50 ml PBS each time.
9. The reaction solution was transferred to the GF/C plate, and each well was washed 4 times with 900 μL of PBS.
10. The washed GF/C plate was placed at 55° C. and dried for 10 minutes.
11. 40 μL of scintillation solution was added to each well, and the CPM value was read with TopCount.
1.2.3 Experimental Data Processing Method:
In the experiment, the CPM (counts per minute) value was read with TopCount. According to the readings of the High control (DMSO) and the Low control ([…] of the positive compound) experimental groups, the […] inhibition was calculated based on the following formula: % Inhibition=100×(CPMHigh control−CPMSample)/(CPMHigh control−CPMLow control)
The IC50 of the compound was calculated according to the following 4-parameter nonlinear logic formula: Y=Bottom+(Top−Bottom)/(1+10^((Log IC50−X)*Hill Slope)),
wherein: • X represents the log of compound concentration, • Y represents the 0 Inhibition.
The effect of the compound of the present invention on the TBPS binding activity was determined by the above test, and the measured IC50 values are shown in Table 1.

Structure (SMILES)	IC50 [nM]
CSc1cnn(CC(=O)[C@H]2[C@H]3C[C@H]3[C@H]3[C@@H]4CC[C@@H]5C[C@](C)(O)CC[C@@H]5[C@H]4CC[C@@]32C)c1 [Example 122, 1-((2R,4aS,4bR,6aS,7S,7aS,8aR,8bR,8cR,10aR)-2-Hydroxy-2,6a-dimethyloctadecahydrocyclopropa[4,5]cyclopenta[1,2-a]phenanthren-7-yl)-2-(4-(methylthio)-1H-pyrazol-1-yl)ethan-1-one]	46
C[C@@H]1C[C@H](C(=O)Cn2cc(C#N)c(C3CC3)n2)[C@@]2(C)CC[C@H]3[C@@H](CC[C@@H]4C[C@](C)(O)CC[C@@H]43)[C@H]12 [Example 69, 3-Cyclopropyl-1-(2-((3R,5R,8R,9R,10S,13S,14S,15R,17S)-3-hydroxy-3,13,15-trimethylhexadecahydro-1H-cyclopenta[a]phenanthren-17-yl)-2-oxoethyl)-1H-pyrazole-4-carbo nitrile]	7.6
C[C@@]1(O)CC[C@H]2[C@H](CC[C@@H]3[C@@H]2CC[C@@]2(C)[C@H]3[C@H](C3CC3)C[C@@H]2C(=O)Cn2ccc(C(F)(F)F)n2)C1 [Example 144, 1-((3R,5R,8R,9R,10S,13S,14S,15S,17S)-15-Cyclopropyl-3-hydroxy-3,13-dimethylhexadecahydro-1H-cyclopenta[a]phenanthren-17-yl)-2-(3-(trifluoromethyl)-1H-pyrazol-1-yl)ethan-1-one]	18.6
Cc1nnnn1CC(=O)[C@H]1[C@H]2C[C@H]2[C@H]2[C@@H]3CC[C@@H]4C[C@](C)(O)CC[C@@H]4[C@H]3CC[C@@]21C [Example 101, 1-((2R,4aS,4bR,6aS,7S,7aS,8aR,8bR,8cR,10aR)-2-Hydroxy-2,6a-dimethyloctadecahydrocyclopropa[4,5]cyclopenta[1,2-a]phenanthren-7-yl)-2-(5-methyl-1H-tetrazol-1-yl)ethan-1-one]	11.4
COc1ccc2c(c1)nnn2CC(=O)[C@H]1[C@H]2C[C@H]2[C@H]2[C@@H]3CC[C@@H]4C[C@](C)(O)CC[C@@H]4[C@H]3CC[C@@]21C [Example 54B, 1-((2R,4aS,4bR,6aS,7S,7aS,8aR,8bR,8cR,10aR)-2-Hydroxy-2,6a-dimethyloctadecahydrocyclopropa[4,5]cyclopenta[1,2-a]phenanthren-7-yl)-2-(5-methoxy-1H-benzo[d][1,2,3]triazol-1-yl)ethan-1-one]	11.8
C[C@@]1(O)CC[C@H]2[C@H](CC[C@@H]3[C@@H]2CC[C@@]2(C)[C@H]3[C@@H]3C[C@@H]3[C@@H]2C(=O)Cn2ccnn2)C1 [Example 8, 1-((2R,4aS,4bR,6aS,7S,7aS,8aR,8bR,8cR,10aR)-2-Hydroxy-2,6a-dimethyloctadecahydrocyclopropa[4,5]cyclopenta[1,2-a]phenanthren-7-yl)-2-(1H-1,2,3-triazol-1-yl)ethan-1-one]	42
COc1ccc2nn(CC(=O)[C@H]3[C@H]4C[C@H]4[C@H]4[C@@H]5CC[C@@H]6C[C@](C)(O)CC[C@@H]6[C@H]5CC[C@@]43C)nc2c1 [Example 53, 1-((2R,4aS,4bR,6aS,7S,7aS,8aR,8bR,8cR,10aR)-2-Hydroxy-2,6a-dimethyloctadecahydrocyclopropa[4,5]cyclopenta[1,2-a]phenanthren-7-yl)-2-(5-methoxy-2H-benzo[d][1,2,3]triazol-2-yl)ethan-1-one]	12.3
C[C@@]1(O)CC[C@H]2[C@H](CC[C@@H]3[C@@H]2CC[C@@]2(C)[C@H]3[C@@H]3C[C@@H]3[C@@H]2C(=O)CNc2ccc(F)cc2)C1 [Example 97, 2-((4-Fluorophenyl)amino)-1-((2R,4aS,4bR,6aS,7S,7aS,8aR,8bR,8cR,10aR)-2-hydroxy-2,6a-dimethyloctadecahydrocyclopropa[4,5]cyclopenta[1,2-a]phenanthren-7-yl)ethan-1-one]	30.2
C[C@@]1(O)CC[C@H]2[C@H](CC[C@@H]3[C@@H]2CC[C@@]2(C)[C@H]3[C@@H]3C[C@@H]3[C@@H]2C(=O)Cn2cc(-c3ncco3)cn2)C1 [Example 128, 1-((2R,4aS,4bR,6aS,7S,7aS,8aR,8bR,8cR,10aR)-2-Hydroxy-2,6a-dimethyloctadecahydrocyclopropa[4,5]cyclopenta[1,2-a]phenanthren-7-yl)-2-(4-(oxazol-2-yl)-1H-pyrazol-1-yl)ethan-1-one]	15.8
C[C@@]1(O)CC[C@H]2[C@H](CC[C@@H]3[C@@H]2CC[C@@]2(C)[C@H]3[C@@H]3C[C@@H]3[C@@H]2C(=O)Cn2ncc(C#N)c2C2CC2)C1 [Example 34, 5-Cyclopropyl-1-(2-((2R,4aS,4bR,6aS,7S,7aS,8aR,8bR,8cR,10aR)-2-hydroxy-2,6a-dimethyloctadecahydrocyclopropa[4,5]cyclopenta[1,2-a]phenanthren-7-yl)-2-oxoethyl)-1H-pyrazole-4-carbonitrile]	28.1
C[C@@]1(O)CC[C@H]2[C@H](CC[C@@H]3[C@@H]2CC[C@@]2(C)[C@H]3[C@@H]3C[C@@H]3[C@@H]2C(=O)Cn2cc(C(=O)N3CCC3)cn2)C1 [Example 102, 2-(4-(Azetidine-1-carbonyl)-1H-pyrazol-1-yl)-1-((2R,4aS,4bR,6aS,7S,7aS,8aR,8bR,8c R,10aR)-2-hydroxy-2,6a-dimethyloctadecahydrocyclopropa[4,5]cyclopenta[1,2-a]phenanthren-7-yl)ethan-1-one]	65
Cc1c(C#N)cnn1CC(=O)[C@H]1[C@H]2C[C@H]2[C@H]2[C@@H]3CC[C@@H]4C[C@](C)(O)CC[C@@H]4[C@H]3CC[C@@]21C [Example 37B, 1-(2-((2R,4aS,4bR,6aS,7S,7aS,8aR,8bR,8cR,10aR)-2-Hydroxy-2,6a-dimethyloctadecahydrocyclopropa[4,5]cyclopenta[1,2-a]phenanthren-7-yl)-2-oxoethyl)-5-methyl-1H-pyrazole-4-carbonitrile]	15.4
C[C@@]1(O)CC[C@H]2[C@H](CC[C@@H]3[C@@H]2CC[C@@]2(C)[C@H]3[C@@H]3C[C@@H]3[C@@H]2C(=O)COc2ccc(C#N)cc2F)C1 [Example 125, 3-Fluoro-4-(2-((2R,4aS,4bR,6aS,7S,7aS,8aR,8bR,8cR,10aR)-2-hydroxy-2,6a-dimethyloctadecahydrocyclopropa[4,5]cyclopenta[1,2-a]phenanthren-7-yl)-2-oxoethoxy)benzonitrile]	30.7
C[C@@]1(O)CC[C@H]2[C@H](CC[C@@H]3[C@@H]2CC[C@@]2(C)[C@H]3[C@@H]3C[C@@H]3[C@@H]2C(=O)Cn2nnc3ccc(F)cc32)C1 [Example 93B, 2-(6-Fluoro-1H-benzo[d][1,2,3]triazol-1-yl)-1-((2R,4aS,4bR,6aS,7S,7aS,8aR,8bR,8cR,10aR)-2-hydroxy-2,6a-dimethyloctadecahydrocyclopropa[4,5]cyclopenta[1,2-a]phenanthren-7-yl)ethan-1-one]	3
C[C@@H]1C[C@H](C(=O)COc2ccc(F)cc2F)[C@@]2(C)CC[C@H]3[C@@H](CC[C@@H]4C[C@](C)(O)CC[C@@H]43)[C@H]12 [Example 64, 2-(2,4-Difluorophenoxy)-1-((3R,5R,8R,9R,10S,13S,14S,15R,17S)-3-hydroxy-3,13,15-trimethylhexadecahydro-1H-cyclopenta[a]phenanthren-17-yl)ethan-1-one]	8.6
C[C@@H]1C[C@H](C(=O)Cn2ccnn2)[C@@]2(C)CC[C@H]3[C@@H](CC[C@@H]4C[C@](C)(O)CC[C@@H]43)[C@H]12 [Example 132, 1-((3R,5R,8R,9R,10S,13S,14S,15R,17S)-3-Hydroxy-3,13,15-trimethylhexadecahydro-1H-cyclopenta[a]phenanthren-17-yl)-2-(1H-1,2,3-triazol-1-yl)ethan-1-one]	24.6
